# Experimental data: patent US20240116985A1, “STAPLED PEPTIDES AND METHODS THEREOF” (priority 2020, published 2024)
# Biological target: T1, full-length beta-Catenin (Uniprot ID P35222) (Homo sapiens, UniProt P35222)
# T1 construct: 10 nM full-length beta-Catenin (Uniprot ID P35222)
# T1 sequence (P35222 1-781): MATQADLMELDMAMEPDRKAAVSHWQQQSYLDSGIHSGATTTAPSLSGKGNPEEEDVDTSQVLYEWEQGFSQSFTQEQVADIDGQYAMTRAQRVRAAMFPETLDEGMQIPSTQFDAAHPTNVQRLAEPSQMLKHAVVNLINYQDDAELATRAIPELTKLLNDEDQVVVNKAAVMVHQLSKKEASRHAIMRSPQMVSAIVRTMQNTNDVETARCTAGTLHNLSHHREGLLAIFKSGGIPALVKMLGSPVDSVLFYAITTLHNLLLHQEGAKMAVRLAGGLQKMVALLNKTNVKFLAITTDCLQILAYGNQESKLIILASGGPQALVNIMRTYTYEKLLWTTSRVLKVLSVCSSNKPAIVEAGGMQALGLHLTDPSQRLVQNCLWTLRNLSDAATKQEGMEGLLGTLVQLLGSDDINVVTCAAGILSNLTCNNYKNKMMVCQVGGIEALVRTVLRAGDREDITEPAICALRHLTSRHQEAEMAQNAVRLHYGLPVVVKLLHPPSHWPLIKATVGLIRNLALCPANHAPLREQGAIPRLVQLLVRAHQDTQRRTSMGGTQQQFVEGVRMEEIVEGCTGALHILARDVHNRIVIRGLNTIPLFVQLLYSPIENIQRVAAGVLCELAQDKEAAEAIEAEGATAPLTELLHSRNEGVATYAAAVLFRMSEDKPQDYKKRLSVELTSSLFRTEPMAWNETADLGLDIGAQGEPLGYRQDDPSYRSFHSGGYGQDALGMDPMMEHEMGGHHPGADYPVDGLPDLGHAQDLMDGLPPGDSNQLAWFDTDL
# Assay: Fluorescence polarization IC50 (beta-catenin / 5FAM-TCF4 10-53 competition)
# Assay type: binding
# Conditions: fluorescence polarization; read-out: beta-Catenin FP IC50
row,SMILES,IC50 [nM]
1,"CC(=O)N1CCC[C@]12CC=CCCCC1(CCCC=CCCCOC(=O)N3CC[C@@](C(=O)N[C@@H](Cc4ccsc4)C(=O)N[C@@H](Cc4csc5ccccc45)C(=O)N[C@@H](Cc4c[nH]c5ccccc45)C(N)=O)(C3)NC(=O)[C@H](CC(N)=O)NC(=O)[C@H](Cc3ccccc3)NC(=O)[C@H](C)NC(=O)C(C)(C)NC(=O)[C@H]([C@@H](C)O)NC(=O)[C@H](CC(N)=O)NC1=O)NC(=O)[C@H](CC(C)(C)C)NC(=O)[C@H](CC(=O)O)NC2=O (stereo partly drawn) [I-2481, Ac-PL3-Asp-Npg-B5-Asn-Thr-Aib-Ala-Phe-Asn-PyrS2-3Thi-BztA-Trp-NH2]",754
2,"CC(=O)N1CCC[C@H]1C(=O)N[C@@H](CC(=O)O)C(=O)N[C@@H](CC(C)(C)C)C(=O)N[C@]1(C)CCCCC=CCCCOC(=O)N2CC[C@@](C(=O)N[C@@H](Cc3ccsc3)C(=O)N[C@@H](Cc3csc4ccccc34)C(=O)N[C@@H](CCC(N)=O)C(N)=O)(C2)NC(=O)[C@H](CC(C)C)NC(=O)[C@H](Cc2ccccc2)NC(=O)[C@H](C)NC(=O)[C@H](C)NC(=O)[C@H](CC(=O)O)NC(=O)[C@H](CC(=O)O)NC1=O [I-1988, Ac-Pro-Asp-Npg-R6-Asp-Asp-Ala-Ala-Phe-Leu-PyrS2-3Thi-BztA-Gln-NH2]",312
3,"CC(=O)N1CCC[C@]12CC=CCCCC1(CCCC=CCCCOC(=O)N3CC[C@@](C(=O)N[C@@H](Cc4ccsc4)C(=O)N[C@@H](Cc4csc5ccccc45)C(=O)N[C@@H](Cc4ccccc4)C(N)=O)(C3)NC(=O)[C@H](CC(C)C)NC(=O)[C@H](Cc3ccccc3)NC(=O)[C@H](C)NC(=O)[C@H](C)NC(=O)[C@H](CN(CC(=O)O)CC(F)(F)F)NC(=O)[C@H](CC(=O)O)NC1=O)NC(=O)[C@H](CC(C)(C)C)NC(=O)[C@H](CC(=O)O)NC2=O (stereo partly drawn) [I-1749, Ac-PL3-Asp-Npg-B5-Asp-TfeGA-Ala-Ala-Phe-Leu-PyrS2-3Thi-BztA-Phe-NH2]",145
4,"CC(=O)N1CCC[C@]12CC=CCCCC1(CCCC=CCCCOC(=O)N3CC[C@@](C(=O)N[C@@H](Cc4ccsc4)C(=O)N[C@@H](Cc4csc5ccccc45)C(=O)N[C@@H](CCC(N)=O)C(N)=O)(C3)NC(=O)[C@H](CC(C)C)NC(=O)[C@H](Cc3ccccc3)NC(=O)[C@H](C)NC(=O)[C@H](C)NC(=O)[C@H](CCN(CCN3CCOCC3)CC(=O)O)NC(=O)[C@H](CC(=O)O)NC1=O)NC(=O)[C@H](CC(C)(C)C)NC(=O)[C@H](CC(=O)O)NC2=O (stereo partly drawn) [I-1842, Ac-PL3-Asp-Npg-B5-Asp-[MorphEt]GAbu-Ala-Ala-Phe-Leu-PyrS2-3Thi-BztA-Gln-NH2]",81
5,"CC(=O)N1CCC[C@]12CC=CCCCC1(CCCC=CCCCOC(=O)N3CC[C@@](C(=O)N[C@@H](Cc4ccsc4)C(=O)N[C@@H](Cc4csc5ccccc45)C(=O)N[C@@H](Cc4c[nH]c5ccccc45)C(N)=O)(C3)NC(=O)[C@H](CC(N)=O)NC(=O)[C@H](Cc3ccccc3)NC(=O)[C@H](C)NC(=O)[C@H](C)NC(=O)[C@H]([C@@H](C)O)NC(=O)[C@H](CC(N)=O)NC1=O)NC(=O)[C@H](CC(C)(C)C)NC(=O)[C@H](CC(=O)O)NC2=O (stereo partly drawn) [I-2139, Ac-PL3-Asp-Npg-B5-Asn-Thr-Ala-Ala-Phe-Asn-PyrS2-3Thi-BztA-Trp-NH2]",970
6,"CC(=O)N1CCC[C@]12CC=CCCCC1(CCCC=CCCCOC(=O)N3CC[C@@](C(=O)N[C@@H](Cc4ccsc4)C(=O)N[C@@H](Cc4csc5ccccc45)C(=O)N[C@@H](CCC(N)=O)C(N)=O)(C3)NC(=O)[C@H](CC(N)=O)NC(=O)[C@H](Cc3ccccc3)NC(=O)[C@H](C)NC(=O)[C@H](C)NC(=O)[C@H](CC(=O)O)NC(=O)[C@H](CC(=O)O)NC1=O)NC(=O)[C@H](CC(C)(C)C)NC(=O)[C@H](CCO)NC2=O (stereo partly drawn) [I-1228, Ac-PL3-Hse-Npg-B5-Asp-Asp-Ala-Ala-Phe-Asn-PyrS2-3Thi-BztA-Gln-NH2]",100
7,"CC(=O)N1CCC[C@]12CC=CCCCC1(CCCC=CCCCOC(=O)N3CC[C@@](C(=O)N[C@@H](Cc4ccccc4)C(=O)N[C@@H](Cc4csc5ccccc45)C(=O)N[C@@H](CCC(N)=O)C(N)=O)(C3)NC(=O)[C@H](CC(C)C)NC(=O)[C@H](Cc3ccccc3)NC(=O)[C@H](C)NC(=O)[C@H](CCCCNC(C)C)NC(=O)[C@H]([C@@H](C)O)NC(=O)[C@H](CC(=O)O)NC1=O)NC(=O)[C@H](CCC(N)=O)NC(=O)[C@H](CC(N)=O)NC2=O (stereo partly drawn) [I-1584, Ac-PL3-Asn-Gln-B5-Asp-Thr-iPrLys-Ala-Phe-Leu-PyrS2-Phe-BztA-Gln-NH2]",2440
8,"CC(=O)N1CCC[C@]12CC=CCCCC1(CCCC=CCCCOC(=O)N3CC[C@@](C(=O)N[C@@H](Cc4ccsc4)C(=O)N[C@@H](Cc4csc5ccccc45)C(=O)N[C@@H](CCC(N)=O)C(N)=O)(C3)NC(=O)[C@H](CC(C)C)NC(=O)[C@H](Cc3ccccc3)NC(=O)[C@H](C)NC(=O)[C@H](C)NC(=O)[C@H](CN3CCC[C@@H](C(=O)O)C3)NC(=O)[C@H](CC(=O)O)NC1=O)NC(=O)[C@H](CC(C)(C)C)NC(=O)[C@H](CC(=O)O)NC2=O (stereo partly drawn) [I-1967, Ac-PL3-Asp-Npg-B5-Asp-R3COOPipA-Ala-Ala-Phe-Leu-PyrS2-3Thi-BztA-Gln-NH2]",14
9,"CC(=O)N1CCC[C@]12CC=CCCCC1(CCCC=CCCCOC(=O)N3CC[C@@](C(=O)N[C@@H](Cc4ccsc4)C(=O)N[C@@H](Cc4csc5ccccc45)C(=O)N[C@@H](CCC(N)=O)C(N)=O)(C3)NC(=O)[C@H](CC(N)=O)NC(=O)[C@H](Cc3ccccc3)NC(=O)[C@H](C)NC(=O)[C@H](C)NC(=O)[C@H](CN(CCC(F)(F)F)CC(=O)O)NC(=O)[C@H](CC(=O)O)NC1=O)NC(=O)[C@H](CC(C)(C)C)NC(=O)[C@H](CC(=O)O)NC2=O (stereo partly drawn) [I-1640, Ac-PL3-Asp-Npg-B5-Asp-[Tfp]GA-Ala-Ala-Phe-Asn-PyrS2-3Thi-BztA-Gln-NH2]",8
10,"CC(=O)N1CCC[C@]12CC=CCCCC1(CCCC=CCCCCC[C@@](C)(C(=O)N[C@@H](Cc3ccsc3)C(=O)N[C@@H](Cc3csc4ccccc34)C(=O)N[C@@H](CCC(N)=O)C(N)=O)NC(=O)[C@H](CC(N)=O)NC(=O)[C@H](Cc3ccccc3)NC(=O)[C@H](C)NC(=O)[C@H](C)NC(=O)[C@H](CC(=O)O)NC(=O)[C@H](CC(=O)O)NC1=O)NC(=O)[C@H](CC(C)(C)C)NC(=O)[C@H](CC(=O)O)NC2=O (stereo partly drawn) [I-1819, Ac-PL3-Asp-Npg-B5-Asp-Asp-Ala-Ala-Phe-Asn-S7-3Thi-BztA-Gln-NH2]",615
11,"CC(=O)N1CCC[C@]12CC=CCCCC1(CCCC=CCCCOC(=O)N3CC[C@@](C(=O)N[C@@H](Cc4ccccc4)C(=O)N[C@@H](Cc4csc5ccccc45)C(=O)N[C@@H](CCO)C(N)=O)(C3)NC(=O)[C@H](CC(N)=O)NC(=O)[C@H](Cc3ccccc3)NC(=O)[C@H](C)NC(=O)[C@H](CCCCNC(C)C)NC(=O)[C@H](CCO)NC(=O)[C@H](CC(=O)O)NC1=O)NC(=O)[C@H](CC1CCCCC1)NC(=O)[C@H](CC(N)=O)NC2=O (stereo partly drawn) [I-1933, Ac-PL3-Asn-Cha-B5-Asp-Hse-iPrLys-Ala-Phe-Asn-PyrS2-Phe-BztA-Hse-NH2]",154
12,"CC(=O)N1CCC[C@]12CC=CCCCC1(CCCC=CCCOC(=O)N3CC[C@@](C(=O)N[C@@H](Cc4ccsc4)C(=O)N[C@@H](Cc4csc5ccccc45)C(=O)N[C@@H](CCC(N)=O)C(N)=O)(C3)NC(=O)[C@H](CC(N)=O)NC(=O)[C@H](Cc3ccccc3)NC(=O)[C@H](C)NC(=O)[C@H](C)NC(=O)[C@H]([C@@H](C)O)NC(=O)[C@H](CC(N)=O)NC1=O)NC(=O)[C@H](CC(C)(C)C)NC(=O)[C@H](CC(=O)O)NC2=O (stereo partly drawn) [I-2198, Ac-PL3-Asp-Npg-B5-Asn-Thr-Ala-Ala-Phe-Asn-PyrS1-3Thi-BztA-Gln-NH2]",1470
13,"CC(=O)N1CCC[C@]12CC=CCCCC1(CCCC=CCCCOC(=O)N3CC[C@@](C(=O)N[C@@H](Cc4ccccc4)C(=O)N[C@@H](Cc4csc5ccccc45)C(=O)N[C@@H](CCC(N)=O)C(N)=O)(C3)NC(=O)[C@H](CC(C)C)NC(=O)[C@H](Cc3ccccc3)NC(=O)[C@H](C)NC(=O)[C@H](CCCCNC(C)C)NC(=O)[C@H]([C@@H](C)O)NC(=O)[C@H](CC(=O)O)NC1=O)NC(=O)[C@H](CO)NC(=O)[C@H](CC(N)=O)NC2=O (stereo partly drawn) [I-1583, Ac-PL3-Asn-Ser-B5-Asp-Thr-iPrLys-Ala-Phe-Leu-PyrS2-Phe-BztA-Gln-NH2]",3420
14,"CC(=O)N1CCC[C@]12CC=CCCCC1(CCCC=CCCCOC(=O)N3CC[C@@](C(=O)N[C@@H](Cc4cccc(Br)c4)C(=O)N[C@@H](Cc4ccsc4)C(=O)N[C@@H](CCC(N)=O)C(N)=O)(C3)NC(=O)[C@H](CC(C)C)NC(=O)[C@H](Cc3ccccc3)NC(=O)[C@H](C)NC(=O)[C@H](C)NC(=O)[C@H](Cc3cccc(C(=O)O)c3)NC(=O)[C@H](CC(=O)O)NC1=O)NC(=O)[C@H](CC(C)(C)C)NC(=O)[C@H](CC(=O)O)NC2=O (stereo partly drawn) [I-2152, Ac-PL3-Asp-Npg-B5-Asp-3COOHF-Ala-Ala-Phe-Leu-PyrS2-3BrF-3Thi-Gln-NH2]",3080
15,"CC(=O)N1CCC[C@]12CC=CCCCC1(CCCC=CCCCOC(=O)N3CC[C@@](C(=O)N[C@@H](Cc4ccsc4)C(=O)N[C@@H](Cc4csc5ccccc45)C(=O)N[C@@H](CCC(N)=O)C(N)=O)(C3)NC(=O)[C@H](CC(C)C)NC(=O)[C@H](Cc3ccccc3)NC(=O)[C@H](C)NC(=O)[C@H](C)NC(=O)[C@H](CC(=O)O)NC(=O)[C@H](CC(=O)S)NC1=O)NC(=O)[C@H](CC(C)(C)C)NC(=O)[C@H](CC(=O)O)NC2=O (stereo partly drawn) [I-1944, Ac-PL3-Asp-Npg-B5-AspSH-Asp-Ala-Ala-Phe-Leu-PyrS2-3Thi-BztA-Gln-NH2]",1630
